Measured values published in patent publication US8192962B2, “Processes for detecting toxic substances” (Daikin Industries, Ltd., priority 2001, dated 2012).

Test system: Mitochondria-located protein genes
Test: DNA chip mRNA expression in yeast, mitochondria-located protein genes (Table 2)
Assay type: cell-based, Saccharomyces cerevisiae S288C
Conditions: cells incubated two hours with the chemical substance
Summary of the method: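 Whole-genome yeast DNA chip hybridization (65° C., >12 h) of Cy-labeled cDNA from S288C cells exposed 2 h at 25° C. to a sub-lethal toxicant dose in YPD; value is intensity relative to chemical-free control.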

N#Cc1c(Cl)c(Cl)c(Cl)c(C#N)c1Cl [(9), 2,4,5,6-tetrachloro-1,3-benzenedicarbonitrile]
The level of expressed mRNA in the presence of chemical substance/The level of expressed mRNA in the absence of chemical substance (yeast gene YAL039C): 1.6 | The level of expressed mRNA in the presence of chemical substance/The level of expressed mRNA in the absence of chemical substance (yeast gene YBL022C): 2.8 | The level of expressed mRNA in the presence of chemical substance/The level of expressed mRNA in the absence of chemical substance (yeast gene YBL030C): 0.4 | The level of expressed mRNA in the presence of chemical substance/The level of expressed mRNA in the absence of chemical substance (yeast gene YBL038W): 1.4 | The level of expressed mRNA in the presence of chemical substance/The level of expressed mRNA in the absence of chemical substance (yeast gene YBL099W): 0.9 | The level of expressed mRNA in the presence of chemical substance/The level of expressed mRNA in the absence of chemical substance (yeast gene YBR003W): 1.0 | The level of expressed mRNA in the presence of chemical substance/The level of expressed mRNA in the absence of chemical substance (yeast gene YBR044C): 0.8 | The level of expressed mRNA in the presence of chemical substance/The level of expressed mRNA in the absence of chemical substance (yeast gene YBR091C): 0.7 | The level of expressed mRNA in the presence of chemical substance/The level of expressed mRNA in the absence of chemical substance (yeast gene YBR122C): 1.1 | The level of expressed mRNA in the presence of chemical substance/The level of expressed mRNA in the absence of chemical substance (yeast gene YBR185C): 0.9 | The level of expressed mRNA in the presence of chemical substance/The level of expressed mRNA in the absence of chemical substance (yeast gene YBR221C): 1.0 | The level of expressed mRNA in the presence of chemical substance/The level of expressed mRNA in the absence of chemical substance (yeast gene YBR251W): 0.5 | The level of expressed mRNA in the presence of chemical substance/The level of expressed mRNA in the absence of chemical substance (yeast gene YBR282W): 1.0 | The level of expressed mRNA in the presence of chemical substance/The level of expressed mRNA in the absence of chemical substance (yeast gene YCL057W): 4.2 | The level of expressed mRNA in the presence of chemical substance/The level of expressed mRNA in the absence of chemical substance (yeast gene YCR046C): 1.9 | The level of expressed mRNA in the presence of chemical substance/The level of expressed mRNA in the absence of chemical substance (yeast gene YCR083W): 1.8 | The level of expressed mRNA in the presence of chemical substance/The level of expressed mRNA in the absence of chemical substance (yeast gene YDL067C): 0.9 | The level of expressed mRNA in the presence of chemical substance/The level of expressed mRNA in the absence of chemical substance (yeast gene YDL181W): 0.7 | The level of expressed mRNA in the presence of chemical substance/The level of expressed mRNA in the absence of chemical substance (yeast gene YDL198C): 1.9 | The level of expressed mRNA in the presence of chemical substance/The level of expressed mRNA in the absence of chemical substance (yeast gene YDR079W): 0.9 | The level of expressed mRNA in the presence of chemical substance/The level of expressed mRNA in the absence of chemical substance (yeast gene YDR178W): 0.9 | The level of expressed mRNA in the presence of chemical substance/The level of expressed mRNA in the absence of chemical substance (yeast gene YDR231C): 1.5 | The level of expressed mRNA in the presence of chemical substance/The level of expressed mRNA in the absence of chemical substance (yeast gene YDR258C): 4.9 | The level of expressed mRNA in the presence of chemical substance/The level of expressed mRNA in the absence of chemical substance (yeast gene YDR298C): 1.0 | The level of expressed mRNA in the presence of chemical substance/The level of expressed mRNA in the absence of chemical substance (yeast gene YDR347W): 0.8 | The level of expressed mRNA in the presence of chemical substance/The level of expressed mRNA in the absence of chemical substance (yeast gene YDR377W): 1.0 | The level of expressed mRNA in the presence of chemical substance/The level of expressed mRNA in the absence of chemical substance (yeast gene YDR529C): 0.5 | The level of expressed mRNA in the presence of chemical substance/The level of expressed mRNA in the absence of chemical substance (yeast gene YEL024W): 0.7 | The level of expressed mRNA in the presence of chemical substance/The level of expressed mRNA in the absence of chemical substance (yeast gene YEL039C): 1.2 | The level of expressed mRNA in the presence of chemical substance/The level of expressed mRNA in the absence of chemical substance (yeast gene YER178W): 1.7 | The level of expressed mRNA in the presence of chemical substance/The level of expressed mRNA in the absence of chemical substance (yeast gene YFL016C): 6.4 | The level of expressed mRNA in the presence of chemical substance/The level of expressed mRNA in the absence of chemical substance (yeast gene YGL018C): 0.5 | The level of expressed mRNA in the presence of chemical substance/The level of expressed mRNA in the absence of chemical substance (yeast gene YGL187C): 0.6 | The level of expressed mRNA in the presence of chemical substance/The level of expressed mRNA in the absence of chemical substance (yeast gene YGL191W): 1.1 | The level of expressed mRNA in the presence of chemical substance/The level of expressed mRNA in the absence of chemical substance (yeast gene YGR008C): 3.1 | The level of expressed mRNA in the presence of chemical substance/The level of expressed mRNA in the absence of chemical substance (yeast gene YGR028W): 1.7 | The level of expressed mRNA in the presence of chemical substance/The level of expressed mRNA in the absence of chemical substance (yeast gene YGR062C): 1.0 | The level of expressed mRNA in the presence of chemical substance/The level of expressed mRNA in the absence of chemical substance (yeast gene YGR076C): 1.2 | The level of expressed mRNA in the presence of chemical substance/The level of expressed mRNA in the absence of chemical substance (yeast gene YGR082W): 0.6 | The level of expressed mRNA in the presence of chemical substance/The level of expressed mRNA in the absence of chemical substance (yeast gene YGR174C): 1.8 | The level of expressed mRNA in the presence of chemical substance/The level of expressed mRNA in the absence of chemical substance (yeast gene YGR244C): 1.4 | The level of expressed mRNA in the presence of chemical substance/The level of expressed mRNA in the absence of chemical substance (yeast gene YHR008C): 1.7 | The level of expressed mRNA in the presence of chemical substance/The level of expressed mRNA in the absence of chemical substance (yeast gene YIL155C): 2.5 | The level of expressed mRNA in the presence of chemical substance/The level of expressed mRNA in the absence of chemical substance (yeast gene YJL096W): 1.0 | The level of expressed mRNA in the presence of chemical substance/The level of expressed mRNA in the absence of chemical substance (yeast gene YJL102W): 3.1 | The level of expressed mRNA in the presence of chemical substance/The level of expressed mRNA in the absence of chemical substance (yeast gene YJL133W): 0.6 | The level of expressed mRNA in the presence of chemical substance/The level of expressed mRNA in the absence of chemical substance (yeast gene YJL166W): 1.3 | The level of expressed mRNA in the presence of chemical substance/The level of expressed mRNA in the absence of chemical substance (yeast gene YJL180C): 1.4 | The level of expressed mRNA in the presence of chemical substance/The level of expressed mRNA in the absence of chemical substance (yeast gene YJR045C): 3.2 | The level of expressed mRNA in the presence of chemical substance/The level of expressed mRNA in the absence of chemical substance (yeast gene YJR077C): 0.4
